Target: Aβ42 (Homo sapiens, UniProt P05067)
Test: Th-T (thioflavin-T) assay of Aβ42 aggregation
Format: biochemical
Conditions: for Th-T fluorescence, mean of three wells: compound at 50

Aβ42, sequence (P05067 672-713): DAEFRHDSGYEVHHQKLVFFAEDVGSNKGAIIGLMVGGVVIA

## C=C1CCC2C(C)(CCC=C(C)C)C(O)CCC2(C)C1Cc1c(OC)oc(CO)c(C)c1=O (stereo not drawn) [Compound 12]
Reading M54 of time course
  Th-T fluorescence, mean of three wells: 1.475
Reading M55 of time course
  Th-T fluorescence, mean of three wells: 1.456
Reading M56 of time course
  Th-T fluorescence, mean of three wells: 1.467
Reading M57 of time course
  Th-T fluorescence, mean of three wells: 1.475
Reading M58 of time course
  Th-T fluorescence, mean of three wells: 1.462
Reading M59 of time course
  Th-T fluorescence, mean of three wells: 1.454
Reading M60 of time course
  Th-T fluorescence, mean of three wells: 1.444
Reading M61 of time course
  Th-T fluorescence, mean of three wells: 1.462
Reading M62 of time course
  Th-T fluorescence, mean of three wells: 1.445
Concentration 10, unit not given, time-course reading M129
  Th-T fluorescence of Aβ42 with compound, mean of three wells (Fig. 7a source data): 2.41
Concentration 10, unit not given, time-course reading M130
  Th-T fluorescence of Aβ42 with compound, mean of three wells (Fig. 7a source data): 2.392
Concentration 10, unit not given, time-course reading M131
  Th-T fluorescence of Aβ42 with compound, mean of three wells (Fig. 7a source data): 2.376
Concentration 10, unit not given, time-course reading M132
  Th-T fluorescence of Aβ42 with compound, mean of three wells (Fig. 7a source data): 2.3677
Concentration 10, unit not given, time-course reading M133
  Th-T fluorescence of Aβ42 with compound, mean of three wells (Fig. 7a source data): 2.357
Concentration 10, unit not given, time-course reading M134
  Th-T fluorescence of Aβ42 with compound, mean of three wells (Fig. 7a source data): 2.346
Concentration 10, unit not given, time-course reading M135
  Th-T fluorescence of Aβ42 with compound, mean of three wells (Fig. 7a source data): 2.32
Concentration 10, unit not given, time-course reading M136
  Th-T fluorescence of Aβ42 with compound, mean of three wells (Fig. 7a source data): 2.323
Concentration 10, unit not given, time-course reading M137
  Th-T fluorescence of Aβ42 with compound, mean of three wells (Fig. 7a source data): 2.294
Concentration 10, unit not given, time-course reading M138
  Th-T fluorescence of Aβ42 with compound, mean of three wells (Fig. 7a source data): 2.29
Concentration 10, unit not given, time-course reading M139
  Th-T fluorescence of Aβ42 with compound, mean of three wells (Fig. 7a source data): 2.265
Concentration 10, unit not given, time-course reading M140
  Th-T fluorescence of Aβ42 with compound, mean of three wells (Fig. 7a source data): 2.265
Concentration 10, unit not given, time-course reading M141
  Th-T fluorescence of Aβ42 with compound, mean of three wells (Fig. 7a source data): 2.2429
Concentration 10, unit not given, time-course reading M142
  Th-T fluorescence of Aβ42 with compound, mean of three wells (Fig. 7a source data): 2.235
Concentration 10, unit not given, time-course reading M143
  Th-T fluorescence of Aβ42 with compound, mean of three wells (Fig. 7a source data): 2.219
Concentration 10, unit not given, time-course reading M144
  Th-T fluorescence of Aβ42 with compound, mean of three wells (Fig. 7a source data): 2.211
Concentration 10, unit not given, time-course reading M145
  Th-T fluorescence of Aβ42 with compound, mean of three wells (Fig. 7a source data): 2.191
Concentration 20, unit not given, time-course reading M129
  Th-T fluorescence of Aβ42 with compound, mean of three wells (Fig. 7a source data): 2.166
Concentration 20, unit not given, time-course reading M130
  Th-T fluorescence of Aβ42 with compound, mean of three wells (Fig. 7a source data): 2.19
Concentration 20, unit not given, time-course reading M131
  Th-T fluorescence of Aβ42 with compound, mean of three wells (Fig. 7a source data): 2.201
Concentration 20, unit not given, time-course reading M132
  Th-T fluorescence of Aβ42 with compound, mean of three wells (Fig. 7a source data): 2.206
Concentration 20, unit not given, time-course reading M133
  Th-T fluorescence of Aβ42 with compound, mean of three wells (Fig. 7a source data): 2.24
Concentration 20, unit not given, time-course reading M134
  Th-T fluorescence of Aβ42 with compound, mean of three wells (Fig. 7a source data): 2.215
Concentration 20, unit not given, time-course reading M135
  Th-T fluorescence of Aβ42 with compound, mean of three wells (Fig. 7a source data): 2.232
Concentration 20, unit not given, time-course reading M136
  Th-T fluorescence of Aβ42 with compound, mean of three wells (Fig. 7a source data): 2.218
Concentration 20, unit not given, time-course reading M137
  Th-T fluorescence of Aβ42 with compound, mean of three wells (Fig. 7a source data): 2.204
Concentration 20, unit not given, time-course reading M138
  Th-T fluorescence of Aβ42 with compound, mean of three wells (Fig. 7a source data): 2.229
Concentration 20, unit not given, time-course reading M139
  Th-T fluorescence of Aβ42 with compound, mean of three wells (Fig. 7a source data): 2.207
Concentration 20, unit not given, time-course reading M140
  Th-T fluorescence of Aβ42 with compound, mean of three wells (Fig. 7a source data): 2.233
Concentration 20, unit not given, time-course reading M141
  Th-T fluorescence of Aβ42 with compound, mean of three wells (Fig. 7a source data): 2.207
Concentration 20, unit not given, time-course reading M142
  Th-T fluorescence of Aβ42 with compound, mean of three wells (Fig. 7a source data): 2.239
Concentration 20, unit not given, time-course reading M143
  Th-T fluorescence of Aβ42 with compound, mean of three wells (Fig. 7a source data): 2.219
Concentration 20, unit not given, time-course reading M144
  Th-T fluorescence of Aβ42 with compound, mean of three wells (Fig. 7a source data): 2.234
Concentration 20, unit not given, time-course reading M145
  Th-T fluorescence of Aβ42 with compound, mean of three wells (Fig. 7a source data): 2.206
Concentration 50, unit not given, time-course reading M129
  Th-T fluorescence of Aβ42 with compound, mean of three wells (Fig. 7a source data): 1.589
Concentration 50, unit not given, time-course reading M130
  Th-T fluorescence of Aβ42 with compound, mean of three wells (Fig. 7a source data): 1.591
Concentration 50, unit not given, time-course reading M131
  Th-T fluorescence of Aβ42 with compound, mean of three wells (Fig. 7a source data): 1.579
Concentration 50, unit not given, time-course reading M132
  Th-T fluorescence of Aβ42 with compound, mean of three wells (Fig. 7a source data): 1.5892
Concentration 50, unit not given, time-course reading M133
  Th-T fluorescence of Aβ42 with compound, mean of three wells (Fig. 7a source data): 1.602
Concentration 50, unit not given, time-course reading M134
  Th-T fluorescence of Aβ42 with compound, mean of three wells (Fig. 7a source data): 1.607
Concentration 50, unit not given, time-course reading M135
  Th-T fluorescence of Aβ42 with compound, mean of three wells (Fig. 7a source data): 1.608
Concentration 50, unit not given, time-course reading M136
  Th-T fluorescence of Aβ42 with compound, mean of three wells (Fig. 7a source data): 1.609
Concentration 50, unit not given, time-course reading M137
  Th-T fluorescence of Aβ42 with compound, mean of three wells (Fig. 7a source data): 1.626
Concentration 50, unit not given, time-course reading M138
  Th-T fluorescence of Aβ42 with compound, mean of three wells (Fig. 7a source data): 1.633
Concentration 50, unit not given, time-course reading M139
  Th-T fluorescence of Aβ42 with compound, mean of three wells (Fig. 7a source data): 1.6439
Concentration 50, unit not given, time-course reading M140
  Th-T fluorescence of Aβ42 with compound, mean of three wells (Fig. 7a source data): 1.64
Concentration 50, unit not given, time-course reading M141
  Th-T fluorescence of Aβ42 with compound, mean of three wells (Fig. 7a source data): 1.647
Concentration 50, unit not given, time-course reading M142
  Th-T fluorescence of Aβ42 with compound, mean of three wells (Fig. 7a source data): 1.661
